The results in this text go back to article PMC12187842, “A novel molecule targeting neutrophil-mediated B-1a cell trogocytosis attenuates sepsis-induced acute lung injury” (Frontiers in Immunology, 2025).

Assay type in all cases: in vivo, mouse
The test system of experiment [1] is CLP-induced sepsis in C57BL/6 mice. Put plainly: Plasma organ injury markers in CLP mice by colorimetric enzymatic assays. The note with it: C11 10 mg/kg i.p. once after CLP (Figure 5 legend: 10 μg/kg); 20 h; n = 5-7/group; vs. CLP vehicle. An excerpt:
(§1) Mice were anesthetized with 2% isoflurane in oxygen, and sepsis was induced via cecal ligation and puncture (CLP) ([26]). A 1-cm midline abdominal incision was made to expose the cecum, which was ligated 1-cm proximal to its end using a 4-0 silk suture. The cecum then was perforated with a single through-and-through puncture using a 22-gauge needle, positioned midway between the ligation and the tip of the cecum. A small amount of fecal material was gently extruded from the perforation sites to confirm the patency of the punctures, and the cecum was subsequently returned to the peritoneal cavity. Following abdominal closure, resuscitation was provided via subcutaneous (s.c.) injection of 500 µL normal saline. Postoperative analgesia was administered with a single dose of 0.1 mg/kg buprenorphine. To evaluate the effects of the therapeutic peptide (named Compound 11 or C11) (synthesized by GenScript USA Inc., Piscataway, NJ) on sepsis, C57BL/6 mice were assigned to three experimental groups: the Sham group, the CLP group treated with vehicle, and the CLP group treated with C11 (10 mg/kg). C11 was dissolved in DMSO (10 mg/mL) and diluted with saline to a total volume of 500 µL. The peptide was administered once, immediately after surgery, via intraperitoneal (i.p.) injection. Mice in the vehicle group received an equivalent volume of DMSO and normal saline via i.p. injection. After 20 h, lungs were harvested, and blood was collected via cardiac puncture. For the survival study, animals received a single subcutaneous (s.c.) injection of 0.5 mg/kg imipenem at the end of the CLP.
(§2) Blood was collected by heart puncture. Plasma levels of organ injury markers (ALT: alanine transaminase, AST: aspartate transferase, and LDH: lactate dehydrogenase) were assessed by using colorimetric enzymatic assays (MedTest Dx, Canton, MI) according to the manufacturer’s protocol. Plasma levels of pro-inflammatory cytokines (TNFα: tumor necrosis factor α, and IL-6: interleukin-6) were measured by using mouse-specific ELISA kits (BD Biosciences).

For experiment [2] the test system is unchanged. The experiment in a line: Lung histopathology (H&E) in CLP mice. Particulars: C11 10 mg/kg i.p. once after CLP (Figure 5 legend: 10 μg/kg); 20 h; n = 5-7/group; vs. CLP vehicle.
Excerpt: as §1, with “The peptide was administered once, immediately after surgery, via intraperitoneal (i.p.) injection. Mice in the vehicle group received an equivalent volume of DMSO and normal saline via i.p. injection. After 20 h, lungs were harvested, and blood was collected via cardiac puncture. For the survival study, animals received a single subcutaneous (s.c.) injection of 0.5 mg/kg imipenem at the end of the CLP.” left out
Lung tissues were fixed in 10% formalin, embedded in paraffin, sectioned into 5-μm-thick slices, and stained with hematoxylin and eosin (H&E). […] Lung fields at ×400 magnification were scored and averaged for analyses.

Experiment [3] shares this test system. Put plainly: TUNEL assay of lung tissue in CLP mice. The note with it: C11 10 mg/kg i.p. once after CLP (Figure 5 legend: 10 μg/kg); 20 h; n = 5-7/group; vs. CLP vehicle. An excerpt: (§3) Mice were anesthetized with 2% isoflurane in oxygen, and sepsis was induced via cecal ligation and puncture (CLP) ([26]). A 1-cm midline abdominal incision was made to expose the cecum, which was ligated 1-cm proximal to its end using a 4-0 silk suture. The cecum then was perforated with a single through-and-through puncture using a 22-gauge needle, positioned midway between the ligation and the tip of the cecum. A small amount of fecal material was gently extruded from the perforation sites to confirm the patency of the punctures, and the cecum was subsequently returned to the peritoneal cavity. Following abdominal closure, resuscitation was provided via subcutaneous (s.c.) injection of 500 µL normal saline. Postoperative analgesia was administered with a single dose of 0.1 mg/kg buprenorphine. […]
To determine cellular apoptosis we used a TUNEL assay kit (Roche Diagnostics, Indianapolis, IN) using 5-μm lung sections by following the manufacturer’s instructions. […] The TUNEL-positive cells were assessed by LSM900 confocal microscope (Zeiss) microscopes. The number of apoptotic cells/fields was quantified using ImageJ, Fiji software (version 1.53k).

The test system is the same in experiment [4]. The experiment in a line: Plasma pro-inflammatory cytokines in CLP mice by ELISA. Particulars: C11 10 mg/kg i.p. once after CLP (Figure 5 legend: 10 μg/kg); 20 h; n = 5-7/group; p < 0.05 vs. CLP vehicle.
Excerpt: as §3, §2
A general note: An ELISA detects its analyte on a solid surface through an enzyme-linked reagent.

The test system is the same in experiment [5]. The experiment in a line: Lung myeloperoxidase activity in CLP mice. Particulars: C11 10 mg/kg i.p. once after CLP (Figure 5 legend: 10 μg/kg); 20 h; n = 5-7/group; vs. CLP vehicle.
Excerpt: as §3
Approximately 50 to 100 mg of septic lung tissue, previously snap-frozen in liquid nitrogen and pulverized into a fine powder, was homogenized in potassium phosphate (KPO4) buffer containing 0.5% hexadecyltrimethylammonium bromide (HTAB; MilliporeSigma, Burlington, MA). […] The enzymatic reaction was monitored by measuring light absorbance at 460 nm over a five-minute period. MPO activity was expressed as units per gram of tissue, where one unit was defined as the change in absorbance per minute.

Experiment [6] has the same test system. The experiment in a line: Lung tissue mRNA expression in CLP mice by real-time qPCR. Particulars: C11 10 mg/kg i.p. once after CLP (Figure 5 legend: 10 μg/kg); 20 h; normalized to β-actin; n = 5-7/group; vs. CLP vehicle.
Excerpt: as §1
Total RNA was extracted from lungs using a TRIzol reagent (Thermo Fisher Scientific) according to the manufacturer’s instructions. cDNA was synthesized using M-MLV reverse transcriptase (Thermo Fisher Scientific). Quantitative real-time PCR (qPCR) was performed using SYBR Green PCR Master Mix (Thermo Fisher Scientific) with a StepOnePlus Real-Time PCR thermocycler (Thermo Fisher Scientific). Mouse β-actin served as an endogenous control to normalize mRNA levels using the comparative Ct method. […]
(In general: Real-time PCR tracks product formation cycle by cycle.)

126-ELKNRTVSWFS-136 [Compound C11]: in experiment [1], the “blood ALT” value is reported as “markedly reduced”, the “blood AST” value was “markedly reduced” and the “blood LDH” value is given as “markedly reduced”. For the same substance, in experiment [2], the “sepsis-induced lung injury (H&E histology, lung injury score 0 to 1)” value is reported as “significantly mitigated”. For the same substance, the “lung apoptosis (TUNEL+ cells)” value in experiment [3] was “reduced tissue damage and apoptosis”. In experiment [4], the “plasma IL-6” value was “significantly reduced” and the “plasma TNF-α” value was “significantly reduced”. Also, in experiment [5], the “lung MPO activity” value is reported as “attenuated”. Besides, in experiment [6], the “lung tissue CXCL1 (KC) mRNA” value was “significantly reduced”, the “lung tissue CXCL2 (MIP-2) mRNA” value is given as “significantly reduced” and the “lung tissue IL-6 mRNA” value is “significantly reduced”.
